In the Kinase Knowledgebase extract (Sharma et al. 2016):

Biological target: PIK3CG (human) (UniProt P48736)
Test: Assessment of PIK3CG Kinase Activity

Chain of PIK3CG (human) (P48736 whole entry, looked up): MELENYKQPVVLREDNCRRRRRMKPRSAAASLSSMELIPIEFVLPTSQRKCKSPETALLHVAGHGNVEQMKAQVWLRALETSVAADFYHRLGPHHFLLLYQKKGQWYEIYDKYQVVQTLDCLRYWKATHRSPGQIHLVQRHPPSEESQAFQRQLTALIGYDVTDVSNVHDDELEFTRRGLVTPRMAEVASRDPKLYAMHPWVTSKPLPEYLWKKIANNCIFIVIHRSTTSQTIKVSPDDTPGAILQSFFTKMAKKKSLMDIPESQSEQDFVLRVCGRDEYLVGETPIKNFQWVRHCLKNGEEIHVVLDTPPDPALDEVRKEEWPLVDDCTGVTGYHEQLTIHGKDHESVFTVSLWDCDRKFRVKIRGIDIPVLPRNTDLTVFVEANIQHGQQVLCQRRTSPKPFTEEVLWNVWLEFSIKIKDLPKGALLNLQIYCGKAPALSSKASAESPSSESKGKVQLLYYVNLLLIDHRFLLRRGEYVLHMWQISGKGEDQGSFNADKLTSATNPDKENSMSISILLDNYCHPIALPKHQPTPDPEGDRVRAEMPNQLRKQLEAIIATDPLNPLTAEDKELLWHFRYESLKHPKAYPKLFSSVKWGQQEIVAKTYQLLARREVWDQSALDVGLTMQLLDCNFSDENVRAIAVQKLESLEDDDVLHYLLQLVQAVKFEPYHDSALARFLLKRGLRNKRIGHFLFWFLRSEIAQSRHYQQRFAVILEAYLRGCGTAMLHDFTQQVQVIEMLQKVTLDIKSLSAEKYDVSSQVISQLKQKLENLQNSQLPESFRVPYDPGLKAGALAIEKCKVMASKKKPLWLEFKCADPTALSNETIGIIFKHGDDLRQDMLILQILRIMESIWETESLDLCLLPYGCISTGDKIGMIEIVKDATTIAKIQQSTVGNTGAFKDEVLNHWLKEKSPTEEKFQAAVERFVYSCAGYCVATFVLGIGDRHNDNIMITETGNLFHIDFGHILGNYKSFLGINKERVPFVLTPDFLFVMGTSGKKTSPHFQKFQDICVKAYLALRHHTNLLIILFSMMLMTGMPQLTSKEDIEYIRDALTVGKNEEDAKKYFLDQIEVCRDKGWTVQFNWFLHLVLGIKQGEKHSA

IC50, < 800 nM:
O=C(NCCN1CCOCC1)Nc1nc2c(s1)-c1nc(-c3ccccc3Cl)ncc1CC2
COCCN(C)C(=O)Nc1nc2c(s1)-c1nc(-c3ccccc3Cl)ncc1CC2
CC(C)c1nnc(CCNC(=O)Nc2nc3c(s2)-c2nc(-c4ccccc4Br)ncc2CC3)o1
CCC(=O)N[C@H]1CCN(C(=O)Nc2nc3c(s2)-c2nc(-c4ccccc4Cl)ncc2CC3)C1
CCN1CCC[C@@H]1CNC(=O)Nc1nc2c(s1)-c1nc(-c3ccccc3Cl)ncc1CC2
CNC(=O)Nc1nc2c(s1)-c1nc(-c3cccc(F)c3Cl)ncc1CC2
CNC(=O)Nc1nc2c(s1)-c1nc(-c3ccccc3F)ncc1CC2
CCCn1cnc(CCNC(=O)Nc2nc3c(s2)-c2nc(-c4ccccc4Cl)ncc2CC3)c1
CCNC(=O)Nc1nc2c(s1)-c1nc(-c3ccccc3Br)ncc1CC2
CCc1cnc(CCNC(=O)Nc2nc3c(s2)-c2nc(-c4ccccc4Br)ncc2CC3)o1
CN(C)C(=O)Nc1nc2c(s1)-c1nc(-c3ccccc3Cl)ncc1CC2
NC(=O)Nc1nc2c(s1)-c1nc(-c3ccccc3Br)ncc1CC2
CNC(=O)Nc1nc2c(s1)-c1nc(-c3ccccc3Cl)ncc1CC2
CCc1noc(CCNC(=O)Nc2nc3c(s2)-c2nc(-c4ccccc4Br)ncc2CC3)n1
CN1CCC(CNC(=O)Nc2nc3c(s2)-c2nc(-c4ccccc4Cl)ncc2CC3)CC1
Cc1nn(C)cc1CNC(=O)Nc1nc2c(s1)-c1nc(-c3ccccc3Cl)ncc1CC2
CN(C)C(=O)Nc1nc2c(s1)-c1nc(-c3ccccc3F)ncc1CC2
O=C(NCc1cc(C2CC2)n[nH]1)Nc1nc2c(s1)-c1nc(-c3cccc(F)c3Cl)ncc1CC2
CCn1cc(CNC(=O)Nc2nc3c(s2)-c2nc(-c4ccccc4Cl)ncc2CC3)cn1
CC(C)(C)CNC(=O)Nc1nc2c(s1)-c1nc(-c3ccccc3Cl)ncc1CC2
O=C(NCc1cccc(NC(=O)N2CCCC2)c1)Nc1nc2c(s1)-c1nc(-c3ccccc3Cl)ncc1CC2
O=C(NCCn1ccnc1)Nc1nc2c(s1)-c1nc(-c3ccccc3Cl)ncc1CC2
CC(C)c1nnc(CCNC(=O)Nc2nc3c(s2)-c2nc(-c4ccccc4Cl)ncc2CC3)o1
O=C(NCCc1cccc(N2CCNC2=O)c1)Nc1nc2c(s1)-c1nc(-c3ccccc3Cl)ncc1CC2
CC(C)CC(=O)Nc1cccc(CNC(=O)Nc2nc3c(s2)-c2nc(-c4ccccc4Cl)ncc2CC3)c1
CN(C)S(=O)(=O)N[C@@H]1CCN(C(=O)Nc2nc3c(s2)-c2nc(-c4ccccc4Cl)ncc2CC3)C1
O=C(Nc1nc2c(s1)-c1nc(-c3ccccc3Cl)ncc1CC2)NC1CCC1
O=C(NCCc1nc(C2CC2)no1)Nc1nc2c(s1)-c1nc(-c3ccccc3Cl)ncc1CC2
O=C(NC[C@H]1CCCN1)Nc1nc2c(s1)-c1nc(-c3ccccc3Cl)ncc1CC2
CCCn1cnc(CCNC(=O)Nc2nc3c(s2)-c2nc(-c4ccccc4Br)ncc2CC3)c1
CC(=O)N[C@@H]1CCN(C(=O)Nc2nc3c(s2)-c2nc(-c4ccccc4Cl)ncc2CC3)C1
CC(C)(C)OC(=O)N1CCC(CNC(=O)Nc2nc3c(s2)-c2nc(-c4ccccc4Cl)ncc2CC3)CC1
O=C(NCc1cccc(N2CCCC2=O)c1)Nc1nc2c(s1)-c1nc(-c3ccccc3Cl)ncc1CC2
O=C(NCc1cc(C2CC2)n[nH]1)Nc1nc2c(s1)-c1nc(-c3ccccc3Cl)ncc1CC2
CC(C)c1nnc(CCNC(=O)Nc2nc3c(s2)-c2nc(-c4ccccc4C(F)(F)F)ncc2CC3)o1
CC1(C)NC(=O)N(Cc2ccc(CNC(=O)Nc3nc4c(s3)-c3nc(-c5ccccc5Cl)ncc3CC4)cc2)C1=O
CCc1cnc(CCNC(=O)Nc2nc3c(s2)-c2nc(C(C)(C)C)ncc2CC3)o1
CNC(=O)c1cccc(CNC(=O)Nc2nc3c(s2)-c2nc(-c4ccccc4Cl)ncc2CC3)c1
CN(C)C(=O)Nc1cccc(CNC(=O)Nc2nc3c(s2)-c2nc(-c4ccccc4Cl)ncc2CC3)c1
O=C(Nc1nc2c(s1)-c1nc(-c3ccccc3Cl)ncc1CC2)N1CCC(N2Cc3ccccc3NC2=O)C1 (stereo not drawn)
CCc1nnc(CCNC(=O)Nc2nc3c(s2)-c2nc(-c4ccccc4F)ncc2CC3)o1
CN(C)CCNC(=O)Nc1nc2c(s1)-c1nc(-c3ccccc3Cl)ncc1CC2
COc1cccc(CNC(=O)Nc2nc3c(s2)-c2nc(-c4ccccc4Cl)ncc2CC3)c1OC
CC(C)(C)OC(=O)CCNC(=O)Nc1nc2c(s1)-c1nc(-c3ccccc3Cl)ncc1CC2
CC(=O)NCC1CCCN(C(=O)Nc2nc3c(s2)-c2nc(-c4ccccc4Cl)ncc2CC3)C1 (stereo not drawn)
CC(C)NC(=O)N[C@H]1CCN(C(=O)Nc2nc3c(s2)-c2nc(-c4ccccc4Cl)ncc2CC3)C1
CC(C)c1noc(CCNC(=O)Nc2nc3c(s2)-c2nc(-c4ccccc4Cl)ncc2CC3)n1
CC(C)(C)c1cc(CNC(=O)Nc2nc3c(s2)-c2nc(-c4ccccc4Cl)ncc2CC3)[nH]n1
N#Cc1cccc(CNC(=O)Nc2nc3c(s2)-c2nc(-c4ccccc4Cl)ncc2CC3)c1
O=C(NCc1cc(C2CC2)n[nH]1)Nc1nc2c(s1)-c1nc(-c3ccccc3Br)ncc1CC2
CN(C)CCCCNC(=O)Nc1nc2c(s1)-c1nc(-c3ccccc3Cl)ncc1CC2
CCc1noc(CCNC(=O)Nc2nc3c(s2)-c2nc(-c4ccccc4Cl)ncc2CC3)n1
CNC(=O)Nc1nc2c(s1)-c1nc(-c3ccccc3C(F)(F)F)ncc1CC2
Nc1cccc(CNC(=O)Nc2nc3c(s2)-c2nc(-c4ccccc4Cl)ncc2CC3)c1
CC(=O)NC1CCN(C(=O)Nc2nc3c(s2)-c2nc(-c4ccccc4Cl)ncc2CC3)C1 (stereo not drawn)
COc1cccc(CCNC(=O)Nc2nc3c(s2)-c2nc(-c4ccccc4Cl)ncc2CC3)c1
O=C(NCCC(=O)N1CCCCC1)Nc1nc2c(s1)-c1nc(-c3ccccc3Cl)ncc1CC2
COCCNC(=O)CCNC(=O)Nc1nc2c(s1)-c1nc(-c3ccccc3Cl)ncc1CC2
COCCC(=O)N[C@H]1CCN(C(=O)Nc2nc3c(s2)-c2nc(-c4ccccc4Cl)ncc2CC3)C1
CC(C)(C)OC(=O)N1CCCC(CNC(=O)Nc2nc3c(s2)-c2nc(-c4ccccc4Cl)ncc2CC3)C1 (stereo not drawn)
COc1cccc(CNC(=O)Nc2nc3c(s2)-c2nc(-c4ccccc4Cl)ncc2CC3)c1
CCn1cnc(CCNC(=O)Nc2nc3c(s2)-c2nc(-c4ccccc4Cl)ncc2CC3)c1
CCN(CC)C(=O)N[C@H]1CCN(C(=O)Nc2nc3c(s2)-c2nc(-c4ccccc4Cl)ncc2CC3)C1
O=C(NCCc1cn[nH]c1)Nc1nc2c(s1)-c1nc(-c3ccccc3Cl)ncc1CC2
O=C(CC1CC1)N[C@H]1CCN(C(=O)Nc2nc3c(s2)-c2nc(-c4ccccc4Cl)ncc2CC3)C1
CN1CCC(O)C2(CCCN(C(=O)Nc3nc4c(s3)-c3nc(-c5ccccc5Cl)ncc3CC4)C2)C1 (stereo not drawn)
COc1ccc(OC)c(CNC(=O)Nc2nc3c(s2)-c2nc(-c4ccccc4Cl)ncc2CC3)c1
CNC(=O)CCNC(=O)Nc1nc2c(s1)-c1nc(-c3ccccc3Cl)ncc1CC2
CCNC(=O)Nc1nc2c(s1)-c1nc(-c3cccc(F)c3Cl)ncc1CC2
O=C(Nc1nc2c(s1)-c1nc(-c3ccccc3Cl)ncc1CC2)N1CCC(N2CCNC2=O)CC1
Cn1cccc1CCNC(=O)Nc1nc2c(s1)-c1nc(-c3ccccc3Cl)ncc1CC2
CC(C)(C)c1ncc2c(n1)-c1sc(NC(N)=O)nc1CC2
CC(=O)N(C)c1cccc(CNC(=O)Nc2nc3c(s2)-c2nc(-c4ccccc4Cl)ncc2CC3)c1
CC(C)(C)OC(=O)CC1(O)CCN(C(=O)Nc2nc3c(s2)-c2nc(-c4ccccc4Cl)ncc2CC3)CC1
CC(C)(C)OC(=O)N1CCN(c2cccc(NC(=O)Nc3nc4c(s3)-c3nc(-c5ccccc5Cl)ncc3CC4)c2)CC1
COC(=O)N[C@@H]1CCN(C(=O)Nc2nc3c(s2)-c2nc(-c4ccccc4Cl)ncc2CC3)C1
CC(C)OCCCNC(=O)Nc1nc2c(s1)-c1nc(-c3ccccc3Cl)ncc1CC2
COC(=O)N[C@H]1CCN(C(=O)Nc2nc3c(s2)-c2nc(-c4ccccc4Cl)ncc2CC3)C1
CC(C)c1cnc(CCNC(=O)Nc2nc3c(s2)-c2nc(-c4ccccc4Cl)ncc2CC3)o1
O=C(Nc1ccccc1)Nc1nc2c(s1)-c1nc(-c3ccccc3Cl)ncc1CC2
COc1cccc([C@@H](C)NC(=O)Nc2nc3c(s2)-c2nc(-c4ccccc4Cl)ncc2CC3)c1
O=C(NCCc1ccccc1)Nc1nc2c(s1)-c1nc(-c3ccccc3Cl)ncc1CC2
Cn1cc(CNC(=O)Nc2nc3c(s2)-c2nc(-c4ccccc4Cl)ncc2CC3)cn1
